Assay results from US6080755A, “1,9-diazabicyclo[4.3.0]nona-3,8-diene derivatives” (Wyeth Lederle Japan, Ltd., priority 1995, dated 2000).

Test system: Isolated Rat Hearts
Experiment: Cardioprotective Effect in Ischemia/Reperfusion Model of Isolated Rat Hearts
Design: species or system Male Sprague-Dawley rats
Details: 10^-5 mol of test compound in 0.04% DMSO; 25 min global ischemia, after reperfusion for 30 minutes
Protocol: Cardioprotective Effect in Ischemia/Reperfusion Model of Isolated Rat Hearts:
Male Sprague-Dawley rats (300-500 g) were used. The rats were anesthetized using 40 mg/kg of sodium pentobarbital (i.p.) after treating with heparin (i.v. 1000 U/kg). The hearts were excised and moved quickly to a Langendorlf apparatus where they were perfused with Krebs-Henseleit bicarbonate buffer (118 mM of NaCl; 4.7 mM of KCl; 2.55 mM of CaCl2; 1.18 mM of KH2 PO4; 24.88 mM of NaHCO3; 11.1 mM of glucose) bubbled with mixture gas of 95% oxygen and 5% carbon dioxide at a constant perfusion pressure (75 mmHg). The parameters of cardiac function were determined as follows.
The physiological saline-filled latex balloon was inserted into the left ventricle and connected to a pressure transducer for measurement of left ventricular pressure (LVP). The volume of the balloon was adjusted to produce an LV end-diastolic pressure at 5-10 mmHg. The heart rate was determined with a tachometer and coronary flow was determined with an extra-corporeal electromagnetic flow tube.
For the equilibration, the hearts were perfused for initial 15-20 minutes. Then, treatment with the test compounds was begun 15 minutes before the onset of ischemia. Global ischemia was initiated by shutting off the perfusate flow and this was maintained for 25 minutes. The hearts were submerged in 37° C. buffer during ischemia. Reperfusion was then begun with the test compounds and the hearts were allowed to recover for 30 minutes. The cardiac function was measured before the treatment of the test compounds, before ischemia and after reperfusion. The hearts were treated with 10^-5 mol of the test compounds dissolved in 0.04% of dimethylsulfoxide (DMSO), in comparison with the vehicle, i.e., 0.04% of DMSO alone, in the perfusate.
The cardioprotective effects of the test compounds were evaluated on the basis of the extent of recovery of LVP after reperfusion for 30 minutes.

Compared with COC(=O)C1=NN2C(c3cccc([N+](=O)[O-])c3)C=CC(c3cccc([N+](=O)[O-])c3)C2(C(=O)OC)C1O (centres unmarked) [Compound No. 48, 6,8-Dimethoxycarbonyl-2,5-bis(3-nitrophenyl)-7-hydroxy-1,9-diazabicyclo[4.3.0]nona-3,8-diene], COC(=O)C1=NN2C(c3ccccc3)C=CC(c3ccccc3)C2(C(=O)OC)C1N (centres unmarked) [Compound No. 94, 7-Amino-6,8-dimethoxycarbonyl-2,5-diphenyl-1,9-diazabicyclo[4.3.0]nona-3,8-diene] is higher in “LVDP(%): recovery of LVP, left ventricular developed pressure against the LVP before ischemia as 100%” value (shortened to “LVDP(%): recovery of LVP”): 72.4% for the first, 73.5% for the second.

First: CCCOC(=O)C1=NN2C(c3ccccc3)C=CC(c3ccccc3)C2(C(=O)OCC)C1O (centres unmarked) [Compound No. 139, 2,5-Diphenyl-6-ethoxycarbonyl-7-hydroxy-8-propoxycarbonyl-1,9-diazabicyclo[4.3.0]nona-3,8-diene]
Second: CCN(CC)C(=O)C1=NN2C(c3ccccc3)C=CC(c3ccccc3)C2(C(=O)OC)C1O (centres unmarked) [Compound No. 173, 8-Diethylcarbamoyl-2,5-diphenyl-7-hydroxy-6-methoxycarbonyl-1,9-diazabicyclo[4.3.0]nona-3,8-diene]
The “LVDP(%): recovery of LVP” value of the first is higher: 62.5% for the first, 61.0% for the second.

Compared with COC(=O)C1=NN2C(c3ccc(C(C)=O)cc3)C=CC(c3ccc(C(C)=O)cc3)C2(C(=O)OC)C1O (centres unmarked) [Compound No. 51, 2,5-Bis-(4-acetylphenyl)-6,8-dimethoxycarbonyl-7-hydroxy-1,9-diazabicyclo[4.3.0]nona-3,8-diene], CCCOC(=O)C1=NN2CC(C)=C(C)CC2(C(=O)OCCC)C1O (centres unmarked) [Compound No. 124, 3,4-Dimethyl-6,8-dipropoxycarbonyl-7-hydroxy-1,9-diazabicyclo[4.3.0]nona-3,8-diene] is higher in “LVDP(%): recovery of LVP” value: 55.0% for the first, 84.0% for the second.

Going from “6,8-Diethoxycarbonyl-3(or 4)-methy-1,9-diazabicyclo [4.3.0]nona-3,8-dien-7-ol [Compound No. 35]” to COC(=O)C1=NN2C(c3ccc(C)cc3)C=CC(c3ccc(C)cc3)C2(C(=O)OC)C1O (centres unmarked) [Compound No. 52, 6,8-Dimethoxycarbonyl-2,5-di-p-tolyl-7-hydroxy-1,9-diazabicyclo[4.3.0]nona-3,8-diene], the “LVDP(%): recovery of LVP” value falls from 50.6% to 49.3%.

First: CCOC(=O)C1=NN2CC(C)=C(C)CC2(C(=O)OCC)C1N (centres unmarked) [Compound No. 81, 7-Amino-6,8-diethoxycarbonyl-3,4-dimethyl-1,9-diazabicyclo[4.3.0]nona-3,8-diene]
Second: COC(=O)C1=NN2C(c3ccccc3)C=CC(c3ccccc3)C2(C(=O)OC)C1O (centres unmarked) [Compound No. 31, 6,8-Dimethoxycarbonyl-2,5-diphenyl-1,9-diazabicyclo [4.3.0]nona-3,8-dien-7-ol]
The “LVDP(%): recovery of LVP” value of the first is lower: 56.2% for the first, 85.1% for the second.

Going from COC(=O)C1=NN2C(c3ccc([N+](=O)[O-])cc3)C=CC(c3ccc([N+](=O)[O-])cc3)C2(C(=O)OC)C1O (centres unmarked) [Compound No. 53, 6,8-Dimethoxycarbonyl-2,5-di(4-nitro)phenyl-7-hydroxy-1,9-diazabicyclo[4.3.0]nona-3,8-diene] to CCOC(=O)C1=NN2CC(C)=C(C)CC2(C(=O)OCC)C1O (centres unmarked) [Compound No. 29, 6,8-Diethoxycarbonyl-3,4-dimethylbicyclo[4.3.0]-1,9-diazanona-3,8-dien-7-ol], the “LVDP(%): recovery of LVP” value falls from 60.0% to 44.2%.

Compared with CCOC(=O)C1=NN2CC(C)=C(C)CC2(C(=O)OCC)C1S (centres unmarked) [Compound No. 82, 6,8-Diethoxycarbonyl-3,4-dimethyl-7-mercapto-1,9-diazabicyclo[4.3.0]nona-3,8-diene], COC(=O)C1=NN2C(c3ccc(C#N)cc3)C=CC(c3ccc(C#N)cc3)C2(C(=O)OC)C1O (centres unmarked) [Compound No. 50, 6,8-Dimethoxycarbonyl-2,5-di(4-cyano)phenyl-7-hydroxy-1,9-diazabicyclo[4.3.0]nona-3,8-diene] is higher in “LVDP(%): recovery of LVP” value: 61.5% for the first, 69.8% for the second.
